Measurements reported in US8093273B2, “Flavanoids and isoflavanoids for the prevention and treatment of cardiovascular diseases” (Resverlogix Corp., priority 2004, dated 2012).

Experiments:
human ApoA-I promoter [1] = assay: ApoA-I promoter induction in Caco-2 intestinal cells (pAI.474-Luc luciferase reporter); type: cell-based; conditions: Caco-2 cells, 15 μM, 48 hours incubation, luciferase activity vs control samples
Summary of the method: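 Caco-2 cells stably carrying the human ApoA-I promoter–firefly luciferase construct (pAI.474-Luc) were starved 24 h in 0.5% FBS medium, then exposed to compound at 0 to 100 μM final for 48 h at 37° C. Luciferase activity in lysates was normalized to Bradford protein and compared with solvent-only and untreated controls.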

Caco-2 permeability = type: in vitro ADME, human; conditions: human; in vitro Caco-2 intestinal transport model; read-out: % Transported Paap
Source text: (§1) The Caco-2 cell drug transport model is widely used for screening compounds in drug discovery to assess intestinal transport and predict absorption rates.

Caco-2 cells = assay: Caco-2 permeability; type: in vitro ADME, human; conditions: in vitro Caco-2 intestinal transport model
Source text: as §1

human ApoA-I promoter [2] = conditions: Caco-2 cells, reported by Wong (US 20040033480); cited from earlier work
human ApoA-I promoter [3] = conditions: Caco-2 cells, reported by Wong; cited from earlier work
[4] = following oral administration; Gugler et al. 1975; cited from earlier work

Row | Papp (Caco-2 permeability) | % Transported Paap (Caco-2 cells) | SMILES | ApoA-I Promoter Induction (human ApoA-I promoter [1]) | increase of ApoA-I promoter activity over untreated control (human ApoA-I promoter [2]) | exposure time of maximal stimulation of ApoA-I promoter activity (human ApoA-I promoter [3]) | intestinal absorption [4]
1 | 3.34 ×10⁻⁶ cm/s | 3.34 ×10⁻⁶ cm/s | Oc1ccc(/C=C/c2cc(O)cc(O)c2)cc1 [Resveratrol, resveratrol, reference compound] | increased | 2.5 times | 16 h | –
2 | – | – | O=c1c(O)c(-c2ccc(O)c(O)c2)oc2cc(O)cc(O)c12 [quercetin] | – | – | – | less than 1%
